Experimental data taken from publication PMC6072100, “Exploring the links between peptoid antibacterial activity and toxicity” (MedChemComm, 2017).
Square brackets hold non-standard residues; d marks the D form. Peptide text beside a SMILES is read from it. Nspe = C[C@H](NCC(=O)O)c1ccccc1; NhArg = N=C(N)NCCCCNCC(=O)O

How the values were obtained:
HaCaT cells = assay: Skin cell toxicity assay with HaCaT (alamarBlue); format: cell-based, human
Method in brief: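 HaCaT cells seeded at 2x10^4 per well 24 hours before 1-hour exposure to a 2–100 µM triplicate dilution series in DMEM high glucose with 10% FBS at 37 °C, 5% CO2. Viability assessed with alamarBlue; ED50 defined as dose killing 50% of cells, derived from dose-response data.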

HepG2 cells = assay: Cytotoxicity assay with HepG2 (alamarBlue); format: cell-based, human
Method in brief: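 HepG2 cells (2 × 10^4/well, seeded 1 day earlier) were exposed to compounds (2–100 μM dilution series, triplicate) for 1 h in reduced volume, then diluted with medium and incubated 24 h at 37 °C. Viability was read by alamarBlue after 2 h (Ex 560/Em 600 nm), and ED50 (dose killing 50% of cells) came from dose-response curves.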

Compound	ED50 HaCaT (HaCaT cells) [µM]	ED50 HepG2 (HepG2 cells) [µM]
CCCCCNCC(=O)N(CC(=O)N(CC(=O)N(CCCCC)CC(=O)N(CC(=O)N(CC(=O)N(CCCCN)CC(=O)N(CC(=O)N(CC(=O)N(CCCCN)CC(=O)N(CC(=O)N(CC(N)=O)[C@@H](C)c1ccccc1)[C@@H](C)c1ccccc1)[C@@H](C)c1ccccc1)[C@@H](C)c1ccccc1)[C@@H](C)c1ccccc1)[C@@H](C)c1ccccc1)[C@@H](C)c1ccccc1)[C@@H](C)c1ccccc1 [Peptoid 31, (NamyNspeNspe)2(NLysNspeNspe)2]	20	18
C[C@@H](c1ccccc1)N(CC(N)=O)C(=O)CN(C(=O)CN(CCCCNC(=N)N)C(=O)CN(C(=O)CN(C(=O)CN(CCCCNC(=N)N)C(=O)CN(C(=O)CN(C(=O)CN(CCCCNC(=N)N)C(=O)CN(C(=O)CN(C(=O)CNCCCCNC(=N)N)[C@@H](C)c1ccccc1)[C@@H](C)c1ccccc1)[C@@H](C)c1ccccc1)[C@@H](C)c1ccccc1)[C@@H](C)c1ccccc1)[C@@H](C)c1ccccc1)[C@@H](C)c1ccccc1 [Peptoid 34, (NhArgNspeNspe)4] (H-[NhArg][Nspe][Nspe][NhArg][Nspe][Nspe][NhArg][Nspe][Nspe][NhArg][Nspe][Nspe]-NH2)	20	12
(NhArgNmfbNmfb)4 [Peptoid 36]	28	21
